EP0908457B1, “3-(1,2-benzisothiazol- and isoxazol-5-Y1)-2,4(1H,3H)-pyrimidinedione or thione and 3-(1,2-benzisothiazol- and isoxazol-5-y1)-4(3H)-pyrimidinone or thione herbicidal agents” (BASF AKTIENGESELLSCHAFT, priority 1997, dated 1999)

Key:
[1] = tested on: Sagittaria pygmaea, L.; assay: Postemergence weed control under flooded paddy conditions, SAGPY (Arrowhead (Pygmaea)); format: in vivo; conditions: rated three to four weeks after treatment
[2] = tested on: Monochoria vaginalis, Presl.; assay: Preemergence weed control under flooded paddy conditions, MOOVA (Monochoria); format: in vivo; conditions: preemergence weeds, flooded paddy, rated three to four weeks after treatment; also: meaning of each grade not given here
[3] = tested on: Oryza sativa, (L.) Tebonnet; assay: Rice tolerance to post-transplant applications under flooded paddy conditions (Example 188), ORYSAT (Rice, Tebonnet); conditions: rated three to four weeks after treatment
[4] = tested on: Cyperus iria; assay: Preemergence weed control under flooded paddy conditions, CYPIR (Rice Flatsedge); format: in vivo; conditions: preemergence weeds, flooded paddy, rated three to four weeks after treatment; also: meaning of each grade not given here
[5] = tested on: Sagittaria pygmaea, L.; assay: Preemergence weed control under flooded paddy conditions, SAGPY (Arrowhead (Pygmaea)); format: in vivo; conditions: preemergence weeds, flooded paddy, rated three to four weeks after treatment; also: meaning of each grade not given here
[6] = tested on: Cyperus serotinus, Rottb.; assay: Preemergence weed control under flooded paddy conditions, CYPSE (Flatsedge); format: in vivo; conditions: preemergence weeds, rated three to four weeks after treatment; also: meaning of each grade not given here
[7] = tested on: Monochoria vaginalis, Presl.; assay: Postemergence weed control under flooded paddy conditions, MOOVA (Monochoria); format: in vivo; conditions: rated three to four weeks after treatment
[8] = tested on: Cyperus iria; assay: Postemergence weed control under flooded paddy conditions, CYPIR (Rice Flatsedge); format: in vivo; conditions: rated three to four weeks after treatment
[9] = tested on: Cyperus serotinus, Rottb.; assay: Postemergence weed control under flooded paddy conditions, CYPSE (Flatsedge); format: in vivo; conditions: rated three to four weeks after treatment
[10] = tested on: Echinochloa oryzoides (Ard.) Fritsch.; assay: Postemergence weed control under flooded paddy conditions, ECHORC (Watergrass (Calif.)); format: in vivo; conditions: rated three to four weeks after treatment
[11] = tested on: Oryza sativa, (L.) Tebonnet; assay: Rice tolerance to post-transplant applications under flooded paddy conditions (Example 187), ORYSAT (Rice, Tebonnet); conditions: rated three to four weeks after treatment; also: meaning of each grade not given here
[12] = tested on: Echinochloa oryzoides (Ard.) Fritsch.; assay: Preemergence weed control under flooded paddy conditions, ECHORC (Watergrass (Calif.)); format: in vivo; conditions: preemergence weeds, flooded paddy, rated three to four weeks after treatment; also: meaning of each grade not given here

COc1ccc(OC)c(-c2nsc3ccc(-n4c(=O)cc(C(F)(F)F)n(C)c4=O)cc23)c1 [Example 333, 2,4(1H,3H)-Pyrimidinedione, 3-[3-(2,5-dimethoxyphenyl)-1,2-benzisothiazol-5-yl]-1-methyl-6-(trifluoromethyl)-]
herbicidal effect rating, SAGPY ([1]; Rate 0.0320 kg/ha): 0.0
herbicidal effect rating, SAGPY ([1]; Rate 0.0620 kg/ha): 2.0
herbicidal effect rating, SAGPY ([1]; Rate 0.1250 kg/ha): 4.0
herbicidal effect rating, SAGPY ([1]; Rate 0.2500 kg/ha): 4.0
herbicidal effect rating, MOOVA ([2]; Rate 0.0320 kg/ha): 9.0
herbicidal effect rating, MOOVA ([2]; Rate 0.0620 kg/ha): 9.0
herbicidal effect rating, MOOVA ([2]; Rate 0.1250 kg/ha): 9.0
herbicidal effect rating, MOOVA ([2]; Rate 0.2500 kg/ha): 9.0
herbicidal effect rating, ORYSAT (rice tolerance) ([3]; Rate 0.0320 kg/ha): 4.0
herbicidal effect rating, ORYSAT (rice tolerance) ([3]; Rate 0.0620 kg/ha): 5.0
herbicidal effect rating, ORYSAT (rice tolerance) ([3]; Rate 0.1250 kg/ha): 6.0
herbicidal effect rating, ORYSAT (rice tolerance) ([3]; Rate 0.2500 kg/ha): 6.0
herbicidal effect rating, CYPIR ([4]; Rate 0.0320 kg/ha): 9.0
herbicidal effect rating, CYPIR ([4]; Rate 0.0620 kg/ha): 9.0
herbicidal effect rating, CYPIR ([4]; Rate 0.1250 kg/ha): 9.0
herbicidal effect rating, CYPIR ([4]; Rate 0.2500 kg/ha): 9.0
herbicidal effect rating, SAGPY ([5]; Rate 0.0320 kg/ha): 5.5
herbicidal effect rating, SAGPY ([5]; Rate 0.0620 kg/ha): 8.0
herbicidal effect rating, SAGPY ([5]; Rate 0.1250 kg/ha): 8.5
herbicidal effect rating, SAGPY ([5]; Rate 0.2500 kg/ha): 9.0
herbicidal effect rating, CYPSE ([6]; Rate 0.0320 kg/ha): 7.0
herbicidal effect rating, CYPSE ([6]; Rate 0.0620 kg/ha): 7.0
herbicidal effect rating, CYPSE ([6]; Rate 0.1250 kg/ha): 7.5
herbicidal effect rating, CYPSE ([6]; Rate 0.2500 kg/ha): 7.5
herbicidal effect rating, MOOVA ([7]; Rate 0.0320 kg/ha): 9.0
herbicidal effect rating, MOOVA ([7]; Rate 0.0620 kg/ha): 9.0
herbicidal effect rating, MOOVA ([7]; Rate 0.1250 kg/ha): 9.0
herbicidal effect rating, MOOVA ([7]; Rate 0.2500 kg/ha): 9.0
herbicidal effect rating, CYPIR ([8]; Rate 0.0320 kg/ha): 9.0
herbicidal effect rating, CYPIR ([8]; Rate 0.0620 kg/ha): 9.0
herbicidal effect rating, CYPIR ([8]; Rate 0.1250 kg/ha): 9.0
herbicidal effect rating, CYPIR ([8]; Rate 0.2500 kg/ha): 9.0
herbicidal effect rating, CYPSE ([9]; Rate 0.0320 kg/ha): 0.0
herbicidal effect rating, CYPSE ([9]; Rate 0.0620 kg/ha): 2.0
herbicidal effect rating, CYPSE ([9]; Rate 0.1250 kg/ha): 4.0
herbicidal effect rating, CYPSE ([9]; Rate 0.2500 kg/ha): 8.0
herbicidal effect rating, ECHORC ([10]; Rate 0.0320 kg/ha): 9.0
herbicidal effect rating, ECHORC ([10]; Rate 0.0620 kg/ha): 9.0
herbicidal effect rating, ECHORC ([10]; Rate 0.1250 kg/ha): 9.0
herbicidal effect rating, ECHORC ([10]; Rate 0.2500 kg/ha): 9.0
herbicidal effect rating ORYSAT ([11]; Rate 0.0320 kg/ha): 4.0
herbicidal effect rating ORYSAT ([11]; Rate 0.0620 kg/ha): 6.0
herbicidal effect rating ORYSAT ([11]; Rate 0.1250 kg/ha): 7.0
herbicidal effect rating ORYSAT ([11]; Rate 0.2500 kg/ha): 7.0
herbicidal effect rating, ECHORC ([12]; Rate 0.0320 kg/ha): 9.0
herbicidal effect rating, ECHORC ([12]; Rate 0.0620 kg/ha): 9.0
herbicidal effect rating, ECHORC ([12]; Rate 0.1250 kg/ha): 9.0
herbicidal effect rating, ECHORC ([12]; Rate 0.2500 kg/ha): 9.0
